# Test results: ChEMBL document CHEMBL6078706, “Deciphering the Comprehensive Structure-Activity Relationship of Sunshinamide for Breast Cancer Therapy through Dual Modulation of Apoptotic and Ferroptotic Pathways via TrxR1 and Gpx4 Inhibition” (J Med Chem, 2024)
# The source made the active and inactive calls. No cut-off for these calls is given here.
# Key:
# HEK293 = assay: Antiproliferative activity against human HEK293 cells assessed as cell viability upto 50 nM incubated for 48 hrs by MTT assay; format: toxicity, cell-based; conditions: hek293, 48 h, 0.05 µM
# MDA-MB-468 [1] = assay: Induction of ferroptosis in human MDA-MB-468 cells assessed as increase in cell viability at 25 nM incubated for 48 hrs; format: functional, cell-based
# MDA-MB-468 [2] = assay: Antiproliferative activity against human MDA-MB-468 cells assessed as cell viability at 10 nM incubated for 48 hrs by MTT assay; format: functional, cell-based
# A549 = assay: Antiproliferative activity against human A549 cells assessed as cell viability at 10 nM incubated for 48 hrs by MTT assay; format: functional, cell-based
SMILES,Activity (HEK293),Activity (MDA-MB-468 [1]),Activity (MDA-MB-468 [2]),Activity (A549)
CCCCCCC[C@@H]1CC(=O)N[C@H](CO)C(=O)N[C@H]2CSSC[C@H](NC2=O)C(=O)O1,Non-toxic,–,–,–
CCCCCCC[C@H]1CC(=O)N[C@H](Cc2ccccc2)C(=O)N[C@H]2CSSC[C@H](NC2=O)C(=O)O1,Non-toxic,–,–,–
CCOC(=O)c1ccc(NC2CCCCC2)c(N)c1,–,Active,–,–
CC[C@@H]1CC(=O)N[C@H](Cc2ccccc2)C(=O)N[C@H]2CSSC[C@H](NC2=O)C(=O)O1,Non-toxic,–,Active,Active
O=C1C[C@@H](c2ccccc2)OC(=O)[C@@H]2CSSC[C@H](NC(=O)[C@@H](Cc3ccccc3)N1)C(=O)N2,Non-toxic,–,Active,Active
CC(C)(C)OC(=O)N[C@@H]1CSSC[C@@H](C(=O)OC(C)(C)C)NC1=O,Non-toxic,–,–,–
CCCCCCC[C@@H]1CC(=O)N[C@H](CC(C)C)C(=O)N[C@H]2CSSC[C@H](NC2=O)C(=O)O1,Non-toxic,–,–,–
CCCCCCC[C@@H]1CC(=O)NCC(=O)N[C@H]2CSSC[C@H](NC2=O)C(=O)O1,Non-toxic,–,–,–
